Test: Viability of cultured chondrosarcoma cells (crystal violet nuclear staining, OD590)
Assay type: cell-based
Conditions: human, human chondrosarcoma cell line; crystal violet OD590 (FIG. 5); concentration not given; read-out: decrease in viable cell number
Protocol: Animal Cell Experiments. The effects of the MMP-2 propeptide on viability and metabolism of cultured animal cells was observed. A human chondrosarcoma cell line was cultured in both the presence and absence of 50 μg/ml recombinant MMP-2 propeptide (serum-free). Cultures were observed over a 48 hours period. Cell viability was monitored via crystal violet nuclear staining and absorption spectroscopy (OD590). Absorbance is proportional to cell number (Gillies, 1986, Anal. Biochem. 159:109-113). […] That MMP-2 had no effect on the cultured cancer cell line was not unexpected since the effects of angiogenesis inhibitors (such as angiostatin and endostatin) are believed to be restricted to […] endothelial cells.

Question: For `COc1cc2c(cc1O)CCN[C@]21CS[C@@H]2c3c(OC(C)=O)c(C)c4c(c3[C@H](COC1=O)N1[C@@H]2[C@H]2c3c(cc(C)c(OC)c3O)C[C@@H]([C@@H]1O)N2C)OCO4` [ET-743], which cytotoxicity at 48 h is on record?
Answer: The cytotoxicity at 48 h was 50%.
